Measurements as given in patent US20110288086A1, “POLYCYCLIC QUINAZOLINES, PREPARATION THEREOF, AND USE THEREOF” (priority 2010, published 2011).

Assays:
aurora kinase B = target: T1, aurora kinase B (Homo sapiens, UniProt Q96GD4); assay: Aurora kinase B inhibition in vitro (Invitrogen aurora kinase screening kit PV3174); assay type: biochemical
T1 construct: purchased Invitrogen PV3174

[1] = test system: Hep3B2.1-7 human hepatoma carcinoma cells; assay: Tumor cell inhibition ratio, CCK-8 kit, Hep3B; conditions: read-out: Antiproliferative effect (inhibition ratio) Hep3B
From the text: (§1) The inhibitory activities of the compounds on tumor cells in vitro

[2] = test system: Hut78 T-Lymphocytic Leukemia cells; assay: Tumor cell inhibition ratio, CCK-8 kit, Hut78; conditions: Homo sapiens, HuT78, read-out: Antiproliferative effect (inhibition ratio) Hut-78
From the text: as §1

[3] = test system: Colo320 human rectal cancer cells; assay: Tumor cell inhibition ratio, CCK-8 kit, Colo320; conditions: COLO 320, read-out: Antiproliferative effect (inhibition ratio) Colo320
From the text: as §1

[4] = test system: PANC-1 human pancreatic cancer cells; assay: Tumor cell inhibition ratio, CCK-8 kit, PANC-1; conditions: PANC-1, read-out: Antiproliferative effect (inhibition ratio) PANC-1
From the text: as §1

EGFR tyrosine kinase = EGFR tyrosine kinase (Homo sapiens, UniProt P00533); assay: EGFR tyrosine kinase inhibition in vitro (Invitrogen EGFR inhibitor screening kit PV3193)
From the text: The inhibitory activities of EGFR tyrosine kinase in vitro
Erlotinib hydrochloride was used as a positive control drug.

[5] = test system: A549 human lung cancer cells; assay: Tumor cell inhibition ratio, CCK-8 kit, A549; conditions: A549, read-out: Antiproliferative effect (inhibition ratio) A549
From the text: as §1

[6] = test system: MDA-MB-435s human breast carcinoma cells; assay: Tumor cell inhibition ratio, CCK-8 kit, MDA-MB-435s; conditions: read-out: Antiproliferative effect (inhibition ratio) 435s
From the text: as §1

[7] = test system: K562 human chronicity marrow leukemic cells; assay: Tumor cell inhibition ratio, CCK-8 kit, K562; conditions: K562, read-out: Antiproliferative effect (inhibition ratio) K562
From the text: as §1

[8] = test system: Jurkat E6-1 human T-cell lymphoma; assay: Tumor cell inhibition ratio, CCK-8 kit, Jurkat E6-1; conditions: Jurkat E6.1, read-out: Antiproliferative effect (inhibition ratio) E6-1
From the text: as §1

[9] = test system: PC-3 human carcinoma of prostate; assay: Tumor cell inhibition ratio, CCK-8 kit, PC-3; conditions: read-out: Antiproliferative effect (inhibition ratio) PC-3
From the text: as §1

Chain of EGFR tyrosine kinase (P00533 25-1210): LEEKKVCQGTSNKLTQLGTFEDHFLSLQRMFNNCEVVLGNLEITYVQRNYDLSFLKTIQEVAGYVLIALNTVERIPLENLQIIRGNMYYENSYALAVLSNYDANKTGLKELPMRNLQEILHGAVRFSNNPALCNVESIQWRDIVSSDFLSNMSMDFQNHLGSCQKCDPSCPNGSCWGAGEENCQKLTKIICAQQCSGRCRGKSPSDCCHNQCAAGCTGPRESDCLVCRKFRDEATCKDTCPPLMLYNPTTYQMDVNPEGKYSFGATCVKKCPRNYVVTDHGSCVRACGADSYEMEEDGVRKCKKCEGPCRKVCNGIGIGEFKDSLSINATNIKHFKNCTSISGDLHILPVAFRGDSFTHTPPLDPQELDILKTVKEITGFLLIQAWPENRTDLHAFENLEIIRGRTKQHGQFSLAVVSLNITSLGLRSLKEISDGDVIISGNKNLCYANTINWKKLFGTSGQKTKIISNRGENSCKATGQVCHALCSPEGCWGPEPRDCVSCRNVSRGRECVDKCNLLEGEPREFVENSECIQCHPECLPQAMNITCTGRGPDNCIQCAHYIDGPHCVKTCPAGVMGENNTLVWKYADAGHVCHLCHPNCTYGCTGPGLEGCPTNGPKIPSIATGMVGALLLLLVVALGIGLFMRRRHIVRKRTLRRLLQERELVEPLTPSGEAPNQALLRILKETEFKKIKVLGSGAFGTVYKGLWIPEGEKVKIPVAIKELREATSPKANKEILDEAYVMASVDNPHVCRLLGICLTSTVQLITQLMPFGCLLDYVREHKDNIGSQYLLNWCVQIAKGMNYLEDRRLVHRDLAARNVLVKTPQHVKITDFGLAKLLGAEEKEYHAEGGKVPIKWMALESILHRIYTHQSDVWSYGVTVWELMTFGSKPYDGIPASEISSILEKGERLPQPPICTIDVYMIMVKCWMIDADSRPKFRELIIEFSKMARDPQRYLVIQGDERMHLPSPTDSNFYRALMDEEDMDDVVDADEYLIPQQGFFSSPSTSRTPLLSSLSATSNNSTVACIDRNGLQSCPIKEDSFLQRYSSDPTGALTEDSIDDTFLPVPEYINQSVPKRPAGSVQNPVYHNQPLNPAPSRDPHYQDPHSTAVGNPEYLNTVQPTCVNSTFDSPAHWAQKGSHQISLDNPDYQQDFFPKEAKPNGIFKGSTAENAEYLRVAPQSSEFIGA
T1 sequence (Q96GD4 whole entry): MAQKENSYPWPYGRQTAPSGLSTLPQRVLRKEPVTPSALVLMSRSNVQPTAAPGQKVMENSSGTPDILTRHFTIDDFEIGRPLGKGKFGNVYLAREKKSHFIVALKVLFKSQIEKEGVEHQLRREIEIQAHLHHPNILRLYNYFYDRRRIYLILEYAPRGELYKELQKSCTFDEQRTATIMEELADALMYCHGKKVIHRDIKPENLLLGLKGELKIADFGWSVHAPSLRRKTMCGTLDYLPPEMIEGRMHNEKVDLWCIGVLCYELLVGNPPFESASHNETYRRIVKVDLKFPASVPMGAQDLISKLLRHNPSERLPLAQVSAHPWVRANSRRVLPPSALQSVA

| SMILES | The inhibition ratio of the compound on Aurora B(%) (aurora kinase B; 40 μM) | The inhibition ratio of the compound on Aurora B(%) (aurora kinase B; 200 μM) | The inhibition ratio of the compound on EGFR(%) (EGFR tyrosine kinase; 40 μM) | The inhibition ratio of the compound on EGFR(%) (EGFR tyrosine kinase; 200 μM) | inhibition at 10 µM [1] [%] | inhibition at 100 µM [1] [%] | inhibition at 10 µM [2] [%] | inhibition at 100 µM [2] [%] | inhibition at 10 µM [3] [%] | inhibition at 100 µM [3] [%] | inhibition at 10 µM [4] [%] | inhibition at 100 µM [4] [%] | inhibition at 10 µM [5] [%] | inhibition at 100 µM [5] [%] | inhibition at 10 µM [6] [%] | inhibition at 100 µM [6] [%] | inhibition at 10 µM [7] [%] | inhibition at 100 µM [7] [%] | inhibition at 10 µM [8] [%] | inhibition at 100 µM [8] [%] | other results |
| --- | --- | --- | --- | --- | --- | --- | --- | --- | --- | --- | --- | --- | --- | --- | --- | --- | --- | --- | --- | --- | --- |
| COCCOc1cc2c(cc1OCCOC)C1=Nc3cc(O)ccc3CN1C=N2 [Compound V-18, 11-hydroxy-2,3-bis(2-methoxyethoxy)-8H-quinazolino[4,3-b]quinazoline] | 23.2 | 76.9 | 33.2 | 78.8 | 40.1 | 77.5 | 19.7 | 65.2 | 38.1 | 75.1 | 30 | 84.4 | 37.8 | 78.6 | 36.6 | 72.3 | 10.4 | 59 | 44.1 | 84 | inhibition at 10 µM [9]: 37%; inhibition at 100 µM [9]: 76.2% |
| C#Cc1cccc2c1CN1C=Nc3cc(OC)c(OC)cc3C1=N2 [Compound V-31, 9-ethynyl-2,3-dimethoxy-8H-quinazolino[4,3-b]quinazoline] | 10.6 | 66.5 | 30.6 | 76.5 | 31.9 | 62.2 | 41.1 | 72.2 | 30.8 | 92.8 | 46.5 | 96.4 | 28.8 | 32.8 | 50.6 | 85.1 | 37.5 | 85 | 21.8 | 84.2 | inhibition at 10 µM [9]: 29.4%; inhibition at 100 µM [9]: 81.7% |
| COCCOc1cc2c(cc1OCCOC)C1=Nc3cccc(C(F)(F)F)c3CN1C=N2 [Compound V-9, 9-trifluoromethyl-2,3-bis(2-methoxyethoxy)-8H-quinazolino[4,3-b]quinazoline] | 17.6 | 60.5 | 13.0 | 60.3 | 40.1 | 82.8 | 19.2 | 70.5 | 46.3 | 73.3 | 11.7 | 55.6 | 33.7 | 87.5 | 54.9 | 80.7 | 34.6 | 79.9 | 20.4 | 65.4 | inhibition at 10 µM [9]: 16.4%; inhibition at 100 µM [9]: 78% |
| COCCOc1cc2c(cc1OCCOC)C1=Nc3cccc(OC)c3CN1C=N2 [Compound V-10, 9-methoxy-2,3-bis(2-methoxyethoxy)-8H-quinazolino[4,3-b]quinazoline] | 20.8 | 73.6 | 30.8 | 78.5 | 31.9 | 72.2 | 41.1 | 72.2 | 10.8 | 72.8 | 36.5 | 96.9 | 28.8 | 82.8 | 29.6 | 65.1 | 47.5 | 85 | 51.8 | 84.2 | inhibition at 10 µM [9]: 9.39%; inhibition at 100 µM [9]: 91.7% |
| COCCOc1cc2c(cc1OCCOC)C1=Nc3ccc(OCc4cccc(F)c4)c(Cl)c3CN1C=N2 [Compound V-14, 9-chloro-10-(3-fluoro-benzyloxy)-2,3-bis(2-methoxyethoxy)-8H-quinazolino[4,3-b]quinazoline] | 23.2 | 76.9 | 45.2 | 87.9 | 45.1 | 100 | 21.3 | 98.7 | 17.6 | 88 | 38.3 | 99.9 | 31.1 | 97.8 | 46.6 | 94.8 | 36.6 | 100 | 26.9 | 97.7 | inhibition at 10 µM [9]: 38.5%; inhibition at 100 µM [9]: 97.1% |

Continued, in another order:

| The inhibition ratio of the compound on Aurora B(%) (aurora kinase B; 40 μM) | The inhibition ratio of the compound on Aurora B(%) (aurora kinase B; 200 μM) | The inhibition ratio of the compound on EGFR(%) (EGFR tyrosine kinase; 40 μM) | The inhibition ratio of the compound on EGFR(%) (EGFR tyrosine kinase; 200 μM) | SMILES | inhibition at 10 µM [1] [%] | inhibition at 100 µM [1] [%] | inhibition at 10 µM [2] [%] | inhibition at 100 µM [2] [%] | inhibition at 10 µM [3] [%] | inhibition at 100 µM [3] [%] | inhibition at 10 µM [4] [%] | inhibition at 100 µM [4] [%] | inhibition at 10 µM [5] [%] | inhibition at 100 µM [5] [%] | inhibition at 10 µM [6] [%] | inhibition at 100 µM [6] [%] | inhibition at 10 µM [7] [%] | inhibition at 100 µM [7] [%] | inhibition at 10 µM [8] [%] | inhibition at 100 µM [8] [%] | other results |
| --- | --- | --- | --- | --- | --- | --- | --- | --- | --- | --- | --- | --- | --- | --- | --- | --- | --- | --- | --- | --- | --- |
| 23.2 | 91.7 | 36.2 | 80.5 | COCCOc1cc2c(cc1OCCOC)C1=Nc3cccc(C#N)c3CN1C=N2 [Compound V-7, 9-cyano-2,3-bis(2-methoxyethoxy)-8H-quinazolino[4,3-b]quinazoline] | 40.4 | 89.5 | 32.1 | 62.4 | 42.1 | 81.4 | 40.7 | 86.6 | 27.7 | 83.6 | 38 | 81.4 | 24.3 | 61.7 | 34.6 | 75.4 | inhibition at 10 µM [9]: 15.9%; inhibition at 100 µM [9]: 90.3% |
| 35.1 | 74.6 | 25.2 | 74.6 | COCCOc1cc2c(cc1OCCOC)C1=Nc3cccc([N+](=O)[O-])c3CN1C=N2 [Compound V-5, 9-nitro-2,3-bis(2-methoxyethoxy)-8H-quinazolino[4,3-b]quinazoline] | 22.3 | 54.4 | 43.8 | 63.5 | 51.7 | 84.9 | 17.1 | 80.3 | 59.8 | 92.5 | 48.9 | 87.2 | 23.6 | 78.3 | 34.8 | 78.9 | inhibition at 10 µM [9]: 32.5%; inhibition at 100 µM [9]: 63.6% |
| 21.5 | 78.1 | 21.7 | 80.1 | COCCOc1cc2c(cc1OCCOC)C1=Nc3cc(F)ccc3CN1C=N2 [Compound V-16, 11-fluoro-2,3-bis(2-methoxyethoxy)-8H-quinazolino[4,3-b]quinazoline] | 30.3 | 74.6 | 44.3 | 99.6 | 52.7 | 99.4 | 22.4 | 99.9 | 50.7 | 70.2 | 48.9 | 66.2 | 53.6 | 93.8 | 56.6 | 97.3 | inhibition at 10 µM [9]: 53.5%; inhibition at 100 µM [9]: 98.9% |
| 26.4 | 84.3 | 25.4 | 70.6 | COCCOc1cc2c(cc1OCCOC)C1=Nc3cc(C#N)ccc3CN1C=N2 [Compound V-17, 11-cyano-2,3-bis(2-methoxyethoxy)-8H-quinazolino[4,3-b]quinazoline] | 58.4 | 85.2 | 35.9 | 45.3 | 9.66 | 26.1 | 19.6 | 56.8 | 49.9 | 87.1 | 37.5 | 95.5 | 19.1 | 25.2 | 33.7 | 79.6 | inhibition at 10 µM [9]: 28.1%; inhibition at 100 µM [9]: 91.7% |
